The Deep4Chem optical property database

Test: photoluminescence quantum yield (fraction); solvent given as SMILES

## C(=C1c2ccccc2CCc2ccccc21)c1ccc(-c2cc(-c3ccc(C=C4c5ccccc5CCc5ccccc54)cc3)cc(-c3ccc(C=C4c5ccccc5CCc5ccccc54)cc3)c2)cc1
In C1CCOC1
  photoluminescence quantum yield: 0.0045

## C(=C\c1c[nH]c2ccc(Oc3ccccc3)cc12)/C1=[NH+]c2cccc3cccc1c23
In CO
  photoluminescence quantum yield: 0.0644

## CCCCC(CC)COc1cc(OCC(CC)CCCC)c2c#cc3ccc4c(c3)c3cc(c#cc5cc(c#cc6ccc7c(c6)c6cc(c#cc1c2)ccc6n7CC(CC)CCCC)c(C(CCCC)OCCC)cc5C(CCCC)OCCC)ccc3n4CC(CC)CCCC (configuration not stated)
In ClCCl
  photoluminescence quantum yield: 0.32

## COc1ccc(C#Cc2c3cc4ccccc4cc3c(C#Cc3ccc(OC)cc3)c3cc4sc(C)cc4cc23)cc1
In ClCCl
  photoluminescence quantum yield: 0.64

## COc1ccc2c(c1)c1cc(OC)ccc1c1c2c2c(C(=O)NC(C)(C)C)ccc(C(=O)NC(C)(C)C)c2c2c3ccc(OC)cc3c3cc(OC)ccc3c21
In ClCCl
  photoluminescence quantum yield: 0.1

## CCn1c2cc(-c3cccs3)ccc2c2ccc(-c3cccs3)cc21
In ClCCl
  photoluminescence quantum yield: 0.61

## CCn1c2ccccc2c2cc(C#Cc3cc(C#Cc4ccc5c(c4)c4ccccc4n5CC)ncn3)ccc21
In C1CCOC1
  photoluminescence quantum yield: 0.74
In CCOC(C)=O
  photoluminescence quantum yield: 0.83
In CN(C)C=O
  photoluminescence quantum yield: 0.68
In Cc1ccccc1
  photoluminescence quantum yield: 0.84
In ClCCl
  photoluminescence quantum yield: 0.72

## CCOC(=O)c1c2c3c(ccc(OC)c3c3cc4c(cc13)[Si](C)(C)O[Si]4(C)C)N(C)C2=O
In CC#N
  photoluminescence quantum yield: 0.46

## N#C/C(=C\c1ccncc1)c1nc(-c2ccc(Cl)cc2)cs1
In CC#N
  photoluminescence quantum yield: 0.168

## CC1=[N+]2C(=C(c3cccs3)c3ccc(C)n3[B-]2(F)F)C=C1c1cc2n(c1)[B-](F)(F)[N+]1=CC=CC1=C2c1c(C)cc(C)cc1C
In C1CCCCC1
  photoluminescence quantum yield: 0.62
In CCOC(C)=O
  photoluminescence quantum yield: 0.12

## N#Cc1cccc(-c2nc(-c3ccccc3)c(-c3ccccc3)[nH]2)c1
In CO
  photoluminescence quantum yield: 0.2

## CCOC(=O)c1ccc(O)c(-c2[nH]c(=O)n3c2-c2ccccc2C3=O)c1
In CC#N
  photoluminescence quantum yield: 0.49
In CO
  photoluminescence quantum yield: 0.4
In ClCCl
  photoluminescence quantum yield: 0.59

## O=[N+]([O-])c1ccc(-c2nc3c(c4c2-c2ccccc2CC4)-c2ccccc2CC3)cc1
In CC#N
  photoluminescence quantum yield: 0.037
In CS(C)=O
  photoluminescence quantum yield: 0.085
In ClCCl
  photoluminescence quantum yield: 0.059

## CCN(CC)c1ccc(/C=N/c2ccccc2/N=C/c2ccc(N(CC)CC)cc2O)c(O)c1
In CC#N
  photoluminescence quantum yield: 0.22

## COc1cc(OC)cc(C(=O)OCc2c(C)c(=O)n3c(=O)c(C)c(C)n23)c1
In CCO
  photoluminescence quantum yield: 0.638

## Clc1nc(Cl)nc(Nc2cc3ccc4cccc5ccc(c2)c3c45)n1
In CC#N
  photoluminescence quantum yield: 0
In CCCCOCCCC
  photoluminescence quantum yield: 0.06
In CO
  photoluminescence quantum yield: 0

## Cc1ccc2[nH]c(-c3ccc(-c4ccc(-c5ccc(-c6nc7cc(C)ccc7[nH]6)cc5)cc4)cc3)nc2c1
In CN(C)C=O
  photoluminescence quantum yield: 0.94

## COc1ccc(C2=N/C(=C\c3ccccc3)C(=O)O2)cc1OC
In C1COCCO1
  photoluminescence quantum yield: 0.02

## CC1(C)c2ccccc2N(c2ccc(C(=O)/C=C(\O)c3ccc(N4c5ccccc5C(C)(C)c5ccccc54)cc3)cc2)c2ccccc21
In c1ccc2c(c1)c1ccccc1n2-c1ccc(-c2ccc(-n3c4ccccc4c4ccccc43)cc2)cc1
  photoluminescence quantum yield: 0.86

## CCN(CC)c1ccc2cc(-c3ccc(-c4ccc(-c5cc6ccc(N(CC)CC)cc6oc5=O)cc4)cc3)c(=O)oc2c1
In ClCCl
  photoluminescence quantum yield: 0.75

## CC(C)[Si](C#Cc1c2cc3ccccc3cc2c(C#C[Si](C(C)C)(C(C)C)C(C)C)c2nc3cc4c(cc3nc12)C1c2ccccc2C4c2ccccc21)(C(C)C)C(C)C
In CCCCCC
  photoluminescence quantum yield: 0.45
In ClCCl
  photoluminescence quantum yield: 0.11

## O=c1oc2ccc(Cl)cc2cc1-c1cc2cc(Cl)ccc2o1
In CS(C)=O
  photoluminescence quantum yield: 0.2

## COC(=O)c1cc(=O)n(C)c2cc(-c3cc4c5c(c3)CCCN5CCC4)sc12
In CC#N
  photoluminescence quantum yield: 0.02
In CCO
  photoluminescence quantum yield: 0.09
In CN(C)C=O
  photoluminescence quantum yield: 0.1
In CO
  photoluminescence quantum yield: 0.3
In CS(C)=O
  photoluminescence quantum yield: 0.17
In ClC(Cl)Cl
  photoluminescence quantum yield: 0.48
In ClCCl
  photoluminescence quantum yield: 0.25

## COc1cccc(-c2nc(-c3ccccc3)c(-c3ccccc3)[nH]2)c1
In CO
  photoluminescence quantum yield: 0.28

## CCCCOc1ccc(-c2cc3c(o2)c(-c2ccc(OCCCC)cc2)c2n3[B-](F)(F)[N+]3=Cc4c(-c5ccc(OCCCC)cc5)c5oc(-c6ccc(OCCCC)cc6)cc5n4[B-](F)(F)[N+]3=C2)cc1
In C1CCOC1
  photoluminescence quantum yield: 0.44
In CN(C)C=O
  photoluminescence quantum yield: 0.32
In CS(C)=O
  photoluminescence quantum yield: 0.3
In Cc1ccccc1
  photoluminescence quantum yield: 0.37
In ClC(Cl)Cl
  photoluminescence quantum yield: 0.41
In ClCCl
  photoluminescence quantum yield: 0.4

## CCOC(=O)c1sc2nc3c(c(C#N)c2c1N)CCCC3
In c1ccccc1
  photoluminescence quantum yield: 0.046

## N#Cc1nc(N(Cc2ccccc2)Cc2ccccc2)c(C#N)nc1N(Cc1ccccc1)Cc1ccccc1
In ClC(Cl)Cl
  photoluminescence quantum yield: 0.76

## C=C(C)C(CN1C(=O)c2cccc3cccc(c23)C1=O)OO (configuration not stated)
In CCO
  photoluminescence quantum yield: 0.002

## N[C@@H](Cn1nnc2cc(-c3ccc4c(c3)OCO4)ccc21)C(=O)O
In CO
  photoluminescence quantum yield: 0.02

## N#Cc1ccc(-c2nc(-c3ccccc3)c3ccccn23)cc1
In ClCCl
  photoluminescence quantum yield: 0.21

## CCCc1ccc(C#Cc2cc(C#Cc3ccc(CCC)cc3)c3ccc4c(C#Cc5ccc(N(C)C)cc5)cc(C#Cc5ccc(CCC)cc5)c5ccc2c3c54)cc1
In ClCCl
  photoluminescence quantum yield: 0.44

## Cc1cc(-c2nc(-c3ccccc3)nc(-c3ccccc3)n2)ccc1-c1ccc2c(c1)C1(c3ccccc3-c3ccccc31)c1ccccc1N2c1ccccc1
In c1cc(-c2cccc(-n3c4ccccc4c4ccccc43)c2)cc(-n2c3ccccc3c3ccccc32)c1
  photoluminescence quantum yield: 1

## F[B-]1(F)n2c(c(-c3ccccc3)c(-c3ccccc3)c2-c2ccccc2)C(c2ccccc2)=C2C(c3ccccc3)=C(c3ccccc3)C(c3ccccc3)=[N+]21
In C1CCOC1
  photoluminescence quantum yield: 0.2

## CC(C)c1cccc(C(C)C)c1N1C(=O)c2cccc3c(Oc4ccc(C(C)(C)c5ccccc5)cc4)ccc(c23)C1=O
In ClCCl
  photoluminescence quantum yield: 0.11

## Cc1oc(-c2ccccc2)nc1C(=O)O
In C1CCCCC1
  photoluminescence quantum yield: 0.16
In CC#N
  photoluminescence quantum yield: 0.4
In CCO
  photoluminescence quantum yield: 0.52
In CCOC(C)=O
  photoluminescence quantum yield: 0.5
In O
  photoluminescence quantum yield: 0.51

## CC1=C(c2cccs2)C(C)=[N+]2C1=C(c1ccc(OS(=O)(=O)c3ccc([N+](=O)[O-])cc3[N+](=O)[O-])cc1)c1c(C)c(-c3cccs3)c(C)n1[B-]2(F)F
In Cc1ccccc1
  photoluminescence quantum yield: 0.059

## C(=C1c2ccccc2-c2ccccc21)c1ccc(-c2ccc(C=C3c4ccccc4-c4ccccc43)cc2)cc1
In C1CCOC1
  photoluminescence quantum yield: 0.0015

## Cc1ccc(/C(C#N)=C/c2cc(/C=C(\C#N)c3ccc(C)cc3)c(-c3ccc(N(c4ccccc4)c4ccccc4)cc3)cc2-c2ccc(N(c3ccccc3)c3ccccc3)cc2)cc1
In C1CCCCC1
  photoluminescence quantum yield: 0.093
In C1CCOC1
  photoluminescence quantum yield: 0.045
In CCCCCC
  photoluminescence quantum yield: 0.121
In CCOC(C)=O
  photoluminescence quantum yield: 0.049
In Cc1ccccc1
  photoluminescence quantum yield: 0.06
In ClC(Cl)Cl
  photoluminescence quantum yield: 0.048
In ClCCl
  photoluminescence quantum yield: 0.028

## COc1ccc(-n2c(C)ccc2C)cc1
In CC#N
  photoluminescence quantum yield: 0.026
In CCCCCC
  photoluminescence quantum yield: 0.024

## CCOC(=O)C1=C(C(=O)OCC)C2(c3ccccc3-c3c(Br)cc(Br)cc32)C2(/C=C/c3ccc(Cl)cc3)c3cc(OC)c(OC)cc3CCN12 (configuration not stated)
In ClCCl
  photoluminescence quantum yield: 0.00075

## Cc1nc2c(cc3c4c(cccc42)C(=O)OC3=O)o1
In CCO
  photoluminescence quantum yield: 0.073

## COc1cc(C=C(C#Cc2ccccc2)C#Cc2ccccc2)c(OC)cc1C=C(C#Cc1ccccc1)C#Cc1ccccc1
In ClC(Cl)Cl
  photoluminescence quantum yield: 0.34

## Cc1ccc(-c2sc(/C(C#N)=C/c3ccc(C#N)cc3)nc2-c2ccc(Cl)cc2)cc1
In CC#N
  photoluminescence quantum yield: 0.11
